Measurements published in patent US8476256B2, “Diazonamide analogs” (Joyant Pharmaceuticals, Inc., priority 2008, dated 2013).

Columns and labels:
[1] = test system: MiaPaca (pancreatic cancer) cells; assay: MiaPaca xenograft model, tumor free animals; assay type: in vivo, Athymic nude mice; conditions: 20 mg/kg, tail vein injection, 6 injections (days 9, 11, 14, 16, 18, 21), at 35 days post tumor cell injection, 7 mice/group
Experimental: Animals: Athymic nude mice, female, 6-7 weeks old, 20-25 g. Animals bearing with 180-400 mg tumors were selected for experiment. 7 mice/group.
Administration: Tail vein injection, 200 μL/mouse, to provide the dose indicated.
Dosing schedule: 6 injections were given on the days indicated post-tumor cell injection.
Controls: Vehicle, Compound J at 20 mg/kg.
Test Compound preparation: Compound J and all test compounds were dissolved in 50% Cremophore/EtOH (1:1) at 10 mg/mL as stock solution. Each compound solution was diluted with saline before injection to the concentration indicated.
Xenograft Model: MiaPaca (pancreatic cancer) cells
Dosing schedule: 6 injections were given on days 9, 11, 14, 16, 18 and 21 post-tumor cell injection.
Test Compounds: Example 23, Example 24, and Example 53, at 20 mg/kg.
For animals treated with the compound of Example 24 at 20 mg/kg, 7 of 7 animals were tumor free at 35 days post tumor cell injection.

[2] = test system: G361 tumor cell line (Skin); assay: Cell profiling, G361; assay type: cell-based; conditions: Homo sapiens, G-361
Experimental: (§1) Cell viability assays were run using standard protocols known to those of skill in art. Cells were plated in 96 well plates at the density of 3,000-10,000 cells per well. Twenty four hours later, cells were treated with increasing concentration of test compounds (1 nM to 1 μM). After another 48 hour, cell survival was measured using CELL-TITER-GLO® reagent (Promega) following the protocol provided by the manufacture. The IC50 value was determined as the concentration of test compound that kills 50% of the cell population.

[3] = test system: MiaPaca-2 tumor cell line (Pancreas); assay: Cell profiling, MiaPaca-2; assay type: cell-based; conditions: Homo sapiens, MIA PaCa-2; MiaPaca-2, Pancreas
Experimental: as §1

[4] = test system: A375 tumor cell line (Skin); assay: Cell profiling, A375; assay type: cell-based; conditions: Homo sapiens, A-375
Experimental: as §1

[5] = test system: NCI-H226 tumor cell line (Lung); assay: Cell profiling, NCI-H226; assay type: cell-based; conditions: Homo sapiens
Experimental: as §1

[6] = test system: A2058 (human melanoma) cell line; assay: Cell viability assay (CELL-TITER-GLO), A2058; assay type: cell-based; conditions: A2058 cells, 48 hour treatment, 1 nM to 1 μM
Experimental: as §1
(§2) Cell viability data generated according to the protocol described herein was generated for representative compounds in the A2058 (human melanoma) and U937 (human leukemic monocyte lymphoma) cell lines. The compound of Example 16 (“Compound J”) was used as a reference compound.

[7] = test system: A2058 (human melanoma) cell line; assay: Cell viability assay (CELL-TITER-GLO), A2058; assay type: cell-based; conditions: Table 8 cell profiling, A2058, Skin
[8] = test system: HCC44 tumor cell line (Lung); assay: Cell profiling, HCC44; assay type: cell-based; conditions: Homo sapiens
Experimental: as §1

[9] = test system: MDA-MB435 tumor cell line (Breast); assay: Cell profiling, MDA-MB435; assay type: cell-based; conditions: Homo sapiens, MDA-MB-435
Experimental: as §1

[10] = test system: Lovo tumor cell line (Colon); assay: Cell profiling, Lovo; assay type: cell-based; conditions: Homo sapiens
Experimental: as §1

[11] = test system: HCC1437 tumor cell line (Lung); assay: Cell profiling, HCC1437; assay type: cell-based
Experimental: as §1

[12] = test system: SW1990 tumor cell line (Pancreas); assay: Cell profiling, SW1990; assay type: cell-based; conditions: Homo sapiens
Experimental: as §1

[13] = test system: PL45 tumor cell line (Pancreas); assay: Cell profiling, PL45; assay type: cell-based
Experimental: as §1

[14] = test system: Panc-1 tumor cell line (Pancreas); assay: Cell profiling, Panc-1; assay type: cell-based; conditions: Homo sapiens; Panc-1, Pancreas
Experimental: as §1

[15] = test system: T98G tumor cell line (Glial Cells); assay: Cell profiling, T98G; assay type: cell-based; conditions: Homo sapiens
Experimental: as §1

[16] = test system: DLD-1 tumor cell line (Colon); assay: Cell profiling, DLD-1; assay type: cell-based; conditions: Homo sapiens; DLD-1, Colon
Experimental: as §1

[17] = test system: HT29 tumor cell line (Colon); assay: Cell profiling, HT29; assay type: cell-based; conditions: Homo sapiens, HT-29
Experimental: as §1

[18] = test system: MDA-MB231 tumor cell line (Breast); assay: Cell profiling, MDA-MB231; assay type: cell-based; conditions: Homo sapiens, MDA-MB-231
Experimental: as §1

[19] = test system: BxPC3 tumor cell line (Pancreas); assay: Cell profiling, BxPC3; assay type: cell-based; conditions: Homo sapiens, BXPC-3
Experimental: as §1

[20] = test system: SKMES-1 tumor cell line (Lung); assay: Cell profiling, SKMES-1; assay type: cell-based; conditions: Homo sapiens, SK-MES-1; SKMES-1, Lung
Experimental: as §1

[21] = test system: Colo205 tumor cell line (Colon); assay: Cell profiling, Colo205; assay type: cell-based; conditions: Homo sapiens, COLO 205
Experimental: as §1

[22] = test system: NCI-H460 tumor cell line (Lung); assay: Cell profiling, NCI-H460; assay type: cell-based; conditions: Homo sapiens
Experimental: as §1

[23] = test system: SKMEL-5 tumor cell line (Skin); assay: Cell profiling, SKMEL-5; assay type: cell-based; conditions: Homo sapiens, SK-MEL-5; SKMEL-5, Skin
Experimental: as §1

[24] = test system: U937 (human leukemic monocyte lymphoma) cell line; assay: Cell viability assay (CELL-TITER-GLO), U937; assay type: cell-based; conditions: U-937, U937 cells, 48 hour treatment, 1 nM to 1 μM
Experimental: as §1, §2

[25] = test system: U937 (human leukemic monocyte lymphoma) cell line; assay: Cell viability assay (CELL-TITER-GLO), U937; assay type: cell-based; conditions: U-937, Table 8 cell profiling, U937, Blood
[26] = test system: DU145 tumor cell line (Prostate); assay: Cell profiling, DU145; assay type: cell-based; conditions: Homo sapiens, DU-145
Experimental: as §1

**Q.** Which “Tumor-free animals out of 7” value [1] does the source give for `CCC(O)(CC)C(=O)N[C@H]1Cc2ccc3c(c2)C24C5=C(N=C(O5)[C@H](C(C)C)NC1=O)c1ncc(o1)-c1c[nH]c5cccc(c15)-c1cccc2c1NC4O3` (stereo in doubt) [Example 24] here?
**A.** 7 of 7

**Q.** And the “Tumor-free animals out of 7” value ([1]; listed as Ex. 24)?
**A.** 7/7 (35)

**Q.** And the IC50 [2]?
**A.** 275 nM

**Q.** What about the IC50 [3] of the same compound?
**A.** 111 nM

**Q.** And the IC50 [4]?
**A.** 162 nM

**Q.** What about the IC50 [5] of the same compound?
**A.** 104 nM

**Q.** What about the IC50 [6] of the same compound?
**A.** 0.105 µM

**Q.** What about the IC50 [7] of the same compound?
**A.** 93 nM

**Q.** And the IC50 [8]?
**A.** 36 nM

**Q.** What about the IC50 [9] of the same compound?
**A.** 29 nM

**Q.** What about the IC50 [10] of the same compound?
**A.** 150 nM

**Q.** What about the IC50 [11] of the same compound?
**A.** 195 nM

**Q.** What about the IC50 [12] of the same compound?
**A.** 360 nM

**Q.** And the IC50 [13]?
**A.** 113 nM

**Q.** What about the IC50 [14] of the same compound?
**A.** 288 nM

**Q.** What about the IC50 [15] of the same compound?
**A.** 67 nM

**Q.** What about the IC50 [16] of the same compound?
**A.** 515 nM

**Q.** What about the IC50 [17] of the same compound?
**A.** 90 nM

**Q.** What about the IC50 [18] of the same compound?
**A.** 234 nM

**Q.** What about the IC50 [19] of the same compound?
**A.** 213 nM

**Q.** And the IC50 [20]?
**A.** 470 nM

**Q.** What about the IC50 [21] of the same compound?
**A.** 144 nM

**Q.** And the IC50 [22]?
**A.** 242 nM

**Q.** What about the IC50 [23] of the same compound?
**A.** 70 nM

**Q.** And the IC50 [24]?
**A.** 0.062 µM

**Q.** And the IC50 [25]?
**A.** 44 nM

**Q.** What about the IC50 [26] of the same compound?
**A.** 57 nM
